Experimental data as given in the NIST ThermoML archive (doi:10.1016/j.fluid.2013.08.005).
Numbers after ± are expanded uncertainties.

Assay: molar heat capacity at constant pressure; mn = molality of the nth substance listed, in mol/kg
Settings: 101 kPa, Liquid, Large sample (1 g) DSC

CCCCCC[N+](C)(C)C.[Br-] [hexyltrimethylammonium bromide] + O
molar heat capacity at constant pressure [J/K/mol]
Settings | 298.15 K | 303.15 K | 308.15 K | 313.15 K
m1 = 0.01002 | 75.42 ± 1.3 | 75.39 ± 1.3 | 75.38 ± 1.3 | 75.39 ± 1.3
m1 = 0.02406 | 75.57 ± 1.3 | 75.55 ± 1.3 | 75.54 ± 1.3 | 75.55 ± 1.3
m1 = 0.03 | 75.65 ± 1.3 | 75.62 ± 1.3 | 75.61 ± 1.3 | 75.63 ± 1.3
m1 = 0.03989 | 75.72 ± 1.3 | 75.7 ± 1.3 | 75.69 ± 1.3 | 75.69 ± 1.3
m1 = 0.045 | 75.7 ± 1.3 | 75.68 ± 1.3 | 75.67 ± 1.3 | 75.7 ± 1.3
m1 = 0.04985 | 75.78 ± 1.3 | 75.76 ± 1.3 | 75.75 ± 1.3 | 75.76 ± 1.3
m1 = 0.05497 | 75.82 ± 1.3 | 75.79 ± 1.3 | 75.78 ± 1.3 | 75.8 ± 1.3
m1 = 0.05996 | 75.89 ± 1.3 | 75.86 ± 1.3 | 75.86 ± 1.3 | 75.87 ± 1.3
m1 = 0.07507 | 75.97 ± 1.3 | 75.95 ± 1.3 | 75.94 ± 1.3 | 75.95 ± 1.3
m1 = 0.07976 | 76.04 ± 1.3 | 76.02 ± 1.3 | 76.02 ± 1.3 | 76.02 ± 1.3
m1 = 0.09 | 76.13 ± 1.3 | 76.11 ± 1.3 | 76.11 ± 1.3 | 76.12 ± 1.3
m1 = 0.09694 | 76.14 ± 1.3 | 76.12 ± 1.3 | 76.11 ± 1.3 | 76.13 ± 1.3
m1 = 0.11 | 76.31 ± 1.3 | 76.29 ± 1.3 | 76.28 ± 1.3 | 76.3 ± 1.3
m1 = 0.1199 | 76.37 ± 1.3 | 76.35 ± 1.3 | 76.35 ± 1.3 | 76.36 ± 1.3
m1 = 0.1251 | 76.39 ± 1.3 | 76.36 ± 1.3 | 76.36 ± 1.3 | 76.38 ± 1.3
m1 = 0.1301 | 76.52 ± 1.3 | 76.51 ± 1.3 | 76.51 ± 1.3 | 76.52 ± 1.3
m1 = 0.14 | 76.58 ± 1.3 | 76.56 ± 1.3 | 76.55 ± 1.3 | 76.57 ± 1.3
m1 = 0.1502 | 76.59 ± 1.3 | 76.57 ± 1.3 | 76.57 ± 1.3 | 76.58 ± 1.3
m1 = 0.1751 | 76.79 ± 1.3 | 76.78 ± 1.3 | 76.77 ± 1.3 | 76.78 ± 1.3
m1 = 0.1993 | 77 ± 1.3 | 76.98 ± 1.3 | 76.98 ± 1.3 | 77 ± 1.3
m1 = 0.2248 | 77.21 ± 1.3 | 77.19 ± 1.3 | 77.19 ± 1.3 | 77.21 ± 1.3
m1 = 0.2507 | 77.41 ± 1.3 | 77.4 ± 1.3 | 77.41 ± 1.3 | 77.43 ± 1.3
m1 = 0.2757 | 77.59 ± 1.3 | 77.58 ± 1.3 | 77.59 ± 1.3 | 77.61 ± 1.3
m1 = 0.2801 | 77.65 ± 1.3 | 77.64 ± 1.3 | 77.66 ± 1.3 | 77.71 ± 1.3
m1 = 0.2851 | 77.71 ± 1.3 | 77.7 ± 1.3 | 77.69 ± 1.3 | 77.71 ± 1.3
m1 = 0.2996 | 77.82 ± 1.3 | 77.8 ± 1.3 | 77.8 ± 1.3 | 77.83 ± 1.3
m1 = 0.3222 | 78.01 ± 1.4 | 78 ± 1.4 | 78.01 ± 1.4 | 78.06 ± 1.4
m1 = 0.3311 | 78.06 ± 1.4 | 78.05 ± 1.4 | 78.06 ± 1.4 | 78.09 ± 1.4
m1 = 0.3512 | 78.21 ± 1.4 | 78.21 ± 1.4 | 78.21 ± 1.4 | 78.23 ± 1.4
m1 = 0.4002 | 78.59 ± 1.4 | 78.59 ± 1.4 | 78.6 ± 1.4 | 78.64 ± 1.4
m1 = 0.4258 | 78.85 ± 1.4 | 78.84 ± 1.4 | 78.84 ± 1.4 | 78.86 ± 1.4
m1 = 0.4503 | 79 ± 1.4 | 78.99 ± 1.4 | 79 ± 1.4 | 79.02 ± 1.4
m1 = 0.4998 | 79.37 ± 1.4 | 79.37 ± 1.4 | 79.38 ± 1.4 | 79.41 ± 1.4
m1 = 0.5263 | 79.58 ± 1.4 | 79.57 ± 1.4 | 79.58 ± 1.4 | 79.61 ± 1.4
m1 = 0.5513 | 79.72 ± 1.4 | 79.73 ± 1.4 | 79.75 ± 1.4 | 79.77 ± 1.4
m1 = 0.5742 | 79.94 ± 1.4 | 79.95 ± 1.4 | 79.96 ± 1.4 | 79.98 ± 1.4
m1 = 0.6007 | 80.15 ± 1.4 | 80.16 ± 1.4 | 80.18 ± 1.4 | 80.22 ± 1.4
m1 = 0.6516 | 80.55 ± 1.4 | 80.56 ± 1.4 | 80.57 ± 1.4 | 80.59 ± 1.4
m1 = 0.701 | 80.9 ± 1.4 | 80.91 ± 1.4 | 80.92 ± 1.4 | 80.95 ± 1.4
m1 = 0.7517 | 81.28 ± 1.4 | 81.29 ± 1.4 | 81.31 ± 1.4 | 81.33 ± 1.4
m1 = 0.8016 | 81.66 ± 1.4 | 81.67 ± 1.4 | 81.68 ± 1.4 | 81.71 ± 1.4
m1 = 0.8842 | 82.28 ± 1.4 | 82.29 ± 1.4 | 82.31 ± 1.4 | 82.33 ± 1.4
m1 = 0.9496 | 82.77 ± 1.4 | 82.78 ± 1.4 | 82.79 ± 1.4 | 82.81 ± 1.4
m1 = 0.9915 | 83.01 ± 1.4 | 83.02 ± 1.4 | 83.05 ± 1.4 | 83.08 ± 1.4

CCCCCCCC[N+](C)(C)C.[Br-] [octyl trimethyl ammonium bromide] + O
molar heat capacity at constant pressure [J/K/mol]
Settings | 298.15 K | 303.15 K | 308.15 K | 313.15 K
m1 = 0.00997 | 75.46 ± 1.3 | 75.44 ± 1.3 | 75.44 ± 1.3 | 75.45 ± 1.3
m1 = 0.01501 | 75.58 ± 1.3 | 75.55 ± 1.3 | 75.54 ± 1.3 | 75.55 ± 1.3
m1 = 0.025 | 75.69 ± 1.3 | 75.66 ± 1.3 | 75.65 ± 1.3 | 75.66 ± 1.3
m1 = 0.04 | 75.85 ± 1.3 | 75.83 ± 1.3 | 75.82 ± 1.3 | 75.83 ± 1.3
m1 = 0.05 | 75.95 ± 1.3 | 75.93 ± 1.3 | 75.92 ± 1.3 | 75.93 ± 1.3
m1 = 0.07502 | 76.27 ± 1.3 | 76.24 ± 1.3 | 76.23 ± 1.3 | 76.25 ± 1.3
m1 = 0.08 | 76.32 ± 1.3 | 76.29 ± 1.3 | 76.29 ± 1.3 | 76.3 ± 1.3
m1 = 0.08509 | 76.4 ± 1.3 | 76.38 ± 1.3 | 76.36 ± 1.3 | 76.36 ± 1.3
m1 = 0.09999 | 76.54 ± 1.3 | 76.51 ± 1.3 | 76.5 ± 1.3 | 76.51 ± 1.3
m1 = 0.1202 | 76.79 ± 1.3 | 76.74 ± 1.3 | 76.74 ± 1.3 | 76.77 ± 1.3
m1 = 0.125 | 76.85 ± 1.3 | 76.82 ± 1.3 | 76.81 ± 1.3 | 76.81 ± 1.3
m1 = 0.1397 | 76.98 ± 1.3 | 76.95 ± 1.3 | 76.93 ± 1.3 | 76.93 ± 1.3
m1 = 0.15 | 77.1 ± 1.3 | 77.08 ± 1.3 | 77.07 ± 1.3 | 77.08 ± 1.3
m1 = 0.16 | 77.21 ± 1.3 | 77.19 ± 1.3 | 77.17 ± 1.3 | 77.15 ± 1.3
m1 = 0.175 | 77.41 ± 1.3 | 77.38 ± 1.3 | 77.37 ± 1.3 | 77.37 ± 1.3
m1 = 0.1799 | 77.47 ± 1.3 | 77.44 ± 1.3 | 77.43 ± 1.3 | 77.42 ± 1.3
m1 = 0.1898 | 77.59 ± 1.3 | 77.55 ± 1.3 | 77.54 ± 1.3 | 77.53 ± 1.3
m1 = 0.2 | 77.66 ± 1.3 | 77.63 ± 1.3 | 77.61 ± 1.3 | 77.61 ± 1.3
m1 = 0.2197 | 77.9 ± 1.3 | 77.87 ± 1.3 | 77.85 ± 1.3 | 77.83 ± 1.3
m1 = 0.24 | 78.15 ± 1.4 | 78.11 ± 1.4 | 78.09 ± 1.4 | 78.08 ± 1.4
m1 = 0.25 | 78.24 ± 1.4 | 78.2 ± 1.4 | 78.18 ± 1.4 | 78.17 ± 1.4
m1 = 0.2601 | 78.37 ± 1.4 | 78.32 ± 1.4 | 78.29 ± 1.4 | 78.28 ± 1.4
m1 = 0.2751 | 78.52 ± 1.4 | 78.47 ± 1.4 | 78.44 ± 1.4 | 78.42 ± 1.4
m1 = 0.2801 | 78.66 ± 1.4 | 78.63 ± 1.4 | 78.59 ± 1.4 | 78.56 ± 1.4
m1 = 0.2999 | 78.81 ± 1.4 | 78.74 ± 1.4 | 78.69 ± 1.4 | 78.67 ± 1.4
m1 = 0.3251 | 79.06 ± 1.4 | 78.99 ± 1.4 | 78.94 ± 1.4 | 78.91 ± 1.4
m1 = 0.3497 | 79.28 ± 1.4 | 79.2 ± 1.4 | 79.15 ± 1.4 | 79.13 ± 1.4
m1 = 0.3749 | 79.51 ± 1.4 | 79.43 ± 1.4 | 79.39 ± 1.4 | 79.37 ± 1.4
m1 = 0.4 | 79.68 ± 1.4 | 79.61 ± 1.4 | 79.57 ± 1.4 | 79.56 ± 1.4
m1 = 0.4248 | 79.91 ± 1.4 | 79.85 ± 1.4 | 79.83 ± 1.4 | 79.83 ± 1.4
m1 = 0.4742 | 80.26 ± 1.4 | 80.22 ± 1.4 | 80.2 ± 1.4 | 80.2 ± 1.4
m1 = 0.5499 | 80.8 ± 1.4 | 80.74 ± 1.4 | 80.73 ± 1.4 | 80.77 ± 1.4
m1 = 0.6251 | 81.38 ± 1.4 | 81.36 ± 1.4 | 81.37 ± 1.4 | 81.41 ± 1.4
m1 = 0.7072 | 81.85 ± 1.4 | 81.84 ± 1.4 | 81.87 ± 1.4 | 81.93 ± 1.4
m1 = 1.277 | 85.58 ± 1.5 | 85.68 ± 1.5 | 85.8 ± 1.5 | 85.96 ± 1.5
m1 = 2.09 | 90.58 ± 1.6 | 90.8 ± 1.6 | 91.05 ± 1.6 | 91.33 ± 1.6
